Experiments:
P-Akt (S473) = test: Cell based AlphaLISA assay, inhibition of P-Akt (S473) (mTORC2 substrate phosphorylation) in MDA-MB-468 cells; conditions: Homo sapiens, MDA-MB-468, 4 h, AlphaLISA, two to four hours at 37° C., read-out: pIC50 for Inhibition of mTORC1 and mTORC2 Substrate Phosphorylation, p-AKT 1/2/3 -(S473) (converted)
Method in brief: (§1)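 Phosphoprotein levels were quantified with AlphaLISA SureFire Ultra kits after compound treatment. Incubation ended by removing assay buffer and lysing cells, and the Alpha signal was read in duplicate. IC50 came from normalized concentration-response regression with control-based normalization.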

P-P70S6K (T389) = test: Cell based AlphaLISA assay, inhibition of P-P70S6K (T389) (mTORC1 substrate phosphorylation) in MDA-MB-468 cells; conditions: Homo sapiens, 4 h, AlphaLISA, two to four hours at 37° C., read-out: pIC50 for Inhibition of mTORC1 and mTORC2 Substrate Phosphorylation, P-P70S6K-(T389) (converted)
Method in brief: as §1

P-4E-BP1 (T37/46) = test: Cell based AlphaLISA assay, inhibition of P-4E-BP1 (T37/46) (mTORC1 substrate phosphorylation) in MDA-MB-468 cells; conditions: Homo sapiens, MDA-MB-468, 4 h, AlphaLISA, two to four hours at 37° C., read-out: pIC50 for Inhibition of mTORC1 and mTORC2 Substrate Phosphorylation, P-4E-BP1-(T37/46) (converted)
Method in brief: as §1

Compound | IC50 (P-Akt (S473)) | IC50 (P-P70S6K (T389)) | IC50 (P-4E-BP1 (T37/46))
CO[C@H]1C[C@@H]2CC[C@@H](C)[C@@](O)(O2)C(=O)C(=O)N2CCCC[C@H]2C(=O)O[C@H]([C@H](C)C[C@@H]2CC[C@@H](OCCCCc3cn(CCOCCOCCOCCOCCNC(=O)CCCC(=O)NCCCCn4nc(-c5ccc6oc(N)nc6c5)c5c(N)ncnc54)nn3)[C@H](OC)C2)CC(=O)[C@H](C)/C=C(\C)[C@@H](O)[C@@H](OC)C(=O)[C@H](C)C[C@H](C)/C=C/C=C/C=C/1C [Example 101] | 0.00316 to 0.0316 µM | < 0.001 µM | < 0.00316 µM
CO[C@H]1C[C@@H]2CC[C@@H](C)[C@@](O)(O2)C(=O)C(=O)N2CCCC[C@H]2C(=O)O[C@H]([C@H](C)C[C@@H]2CC[C@@H](O)[C@H](OC)C2)C[C@@H](OC)[C@H](C)/C=C(\C)[C@@H](O)[C@@H](OC)C(=NOCc2cn(CCOCCOCCOCCOCCNC(=O)CCCC(=O)NCCCCn3nc(-c4ccc5oc(N)nc5c4)c4c(N)ncnc43)nn2)[C@H](C)C[C@H](C)/C=C/C=C/C=C/1C [Example 104] | 0.0316 to 1 µM | 0.001 to 0.01 µM | 0.0316 to 1 µM
CO[C@H]1C[C@@H]2CC[C@@H](C)[C@@](O)(O2)C(=O)C(=O)N2CCCC[C@H]2C(=O)O[C@H]([C@H](C)C[C@@H]2CC[C@H](n3cc(-c4cccc(C(=O)NCCOCCOCCOCCC(=O)NCCOCCOCCOCCC(=O)NCCCCn5nc(-c6ccc7oc(N)nc7c6)c6c(N)ncnc65)c4)nn3)[C@H](OC)C2)CC(=O)[C@H](C)/C=C(\C)[C@@H](O)[C@@H](OC)C(=O)[C@H](C)C[C@H](C)/C=C/C=C/C=C/1C [Example 137] | 0.0316 to 1 µM | 0.001 to 0.01 µM | 0.00316 to 0.0316 µM
CO[C@H]1C[C@@H]2CC[C@@H](C)[C@@](O)(O2)C(=O)C(=O)N2CCCC[C@H]2C(=O)O[C@H]([C@H](C)C[C@@H]2CC[C@H](n3cc(COCCOCCOCCOCCOCCOCCOCCOCCOCCOCCC(=O)NCCCCn4nc(-c5cc6cc(O)ccc6[nH]5)c5c(N)ncnc54)nn3)[C@H](OC)C2)CC(=O)[C@H](C)/C=C(\C)[C@@H](O)[C@@H](OC)C(=O)[C@H](C)C[C@H](C)/C=C/C=C/C=C/1C [Example 196] | 0.0316 to 1 µM | 0.001 to 0.01 µM | 0.00316 to 0.0316 µM
CO/N=C1/C[C@@H]([C@H](C)C[C@@H]2CC[C@H](n3cc(CCCC(=O)NCCOCCOCCOCCC(=O)NCCOCCOCCOCCC(=O)NCCCCn4nc(-c5ccc6oc(N)nc6c5)c5c(N)ncnc54)nn3)[C@H](OC)C2)OC(=O)[C@@H]2CCCCN2C(=O)C(=O)[C@]2(O)O[C@@H](CC[C@H]2C)C[C@H](OC)/C(C)=C/C=C/C=C/[C@@H](C)C[C@@H](C)C(=O)[C@H](OC)[C@H](O)/C(C)=C/[C@H]1C [Example 171] | > 1 µM | 0.01 to 1 µM | 0.0316 to 1 µM
CO[C@H]1C[C@@H]2CC[C@@H](C)[C@@](O)(O2)C(=O)C(=O)N2CCCC[C@H]2C(=O)O[C@H]([C@H](C)C[C@@H]2CC[C@H](n3cc(COC(=O)NCCOCCOCCOCCC(=O)NCCOCCOCCOCCC(=O)NCCCCn4nc(-c5cc6cc(O)ccc6[nH]5)c5c(N)ncnc54)nn3)[C@H](OC)C2)CC(=O)[C@H](C)/C=C(\C)[C@@H](O)[C@@H](OC)C(=O)[C@H](C)C[C@H](C)/C=C/C=C/C=C/1C [Example 123] | 0.0316 to 1 µM | 0.001 to 0.01 µM | 0.00316 to 0.0316 µM
CO[C@H]1C[C@@H]2CC[C@@H](C)[C@@](O)(O2)C(=O)C(=O)N2CCCC[C@H]2C(=O)O[C@H]([C@H](C)C[C@@H]2CC[C@@H](OCc3cccc(-c4cnc(N5CCN(S(=O)(=O)CCc6cn(CCOCCOCCOCCOCCC(=O)NCCCCn7nc(-c8ccc9oc(N)nc9c8)c8c(N)ncnc87)nn6)CC5)nc4)c3)[C@H](OC)C2)CC(=O)[C@H](C)/C=C(\C)[C@@H](O)[C@@H](OC)C(=O)[C@H](C)C[C@H](C)/C=C/C=C/C=C/1C [Example 26] | 0.00316 to 0.0316 µM | < 0.001 µM | < 0.00316 µM
COc1cccc2cc(-c3nc([C@H]4CC[C@H](C(=O)NCCOCCOCCOCCOCCOCCOCCOCCOCCn5cc(CCCCO[C@@H]6CC[C@@H](C[C@@H](C)[C@@H]7CC(=O)[C@H](C)/C=C(\C)[C@@H](O)[C@@H](OC)C(=O)[C@H](C)C[C@H](C)/C=C/C=C/C=C(\C)[C@@H](OC)C[C@@H]8CC[C@@H](C)[C@@](O)(O8)C(=O)C(=O)N8CCCC[C@H]8C(=O)O7)C[C@H]6OC)nn5)CC4)n4ncnc(N)c34)[nH]c12 [Example 108] | 0.00316 to 0.0316 µM | < 0.001 µM | < 0.00316 µM
CO/N=C1/C[C@@H]([C@H](C)C[C@@H]2CC[C@H](n3cc(CCCC(=O)NCCOCCOCCOCCC(=O)NCCOCCOCCOCCC(=O)NCCCCn4nc(-c5cc6cc(O)ccc6[nH]5)c5c(N)ncnc54)nn3)[C@H](OC)C2)OC(=O)[C@@H]2CCCCN2C(=O)C(=O)[C@]2(O)O[C@@H](CC[C@H]2C)C[C@H](OC)/C(C)=C/C=C/C=C/[C@@H](C)C[C@@H](C)C(=O)[C@H](OC)[C@H](O)/C(C)=C/[C@H]1C [Example 172] | > 1 µM | 0.01 to 1 µM | > 1 µM
CO[C@H]1C[C@@H]2CC[C@@H](C)[C@@](O)(O2)C(=O)C(=O)N2CCCC[C@H]2C(=O)O[C@H]([C@H](C)C[C@@H]2CC[C@H](n3nncc3-c3cccc(-c4cnc(N5CCN(Cc6cn(CCOCCOCCOCCC(=O)NCCCCn7nc(-c8ccc9oc(N)nc9c8)c8c(N)ncnc87)nn6)C(CO)C5)nc4)c3)[C@H](OC)C2)CC(=O)[C@H](C)/C=C(\C)[C@@H](O)[C@@H](OC)C(=O)[C@H](C)C[C@H](C)/C=C/C=C/C=C/1C (stereo partly drawn) [Example 34] | 0.0316 to 1 µM | 0.001 to 0.01 µM | 0.00316 to 0.0316 µM
CO[C@H]1C[C@@H]2CC[C@@H](C)[C@@](O)(O2)C(=O)C(=O)N2CCCC[C@H]2C(=O)O[C@H]([C@H](C)C[C@@H]2CC[C@H](n3cc(CCCC(=O)NCCOCCOCCOCCC(=O)NCCOCCOCCOCCC(=O)NCCCCn4nc(-c5ccc6oc(N)nc6c5)c5c(N)ncnc54)nn3)[C@H](OC)C2)C[C@@H](OC)[C@H](C)/C=C(\C)[C@@H](O)[C@@H](OC)C(=O)[C@H](C)C[C@H](C)/C=C/C=C/C=C/1C [Example 164] | 0.0316 to 1 µM | < 0.001 µM | 0.00316 to 0.0316 µM
CO[C@H]1C[C@@H]2CC[C@@H](C)[C@@](O)(O2)C(=O)C(=O)N2CCCC[C@H]2C(=O)O[C@H]([C@H](C)C[C@@H]2CC[C@@H](OCc3cccc(-c4cnc(N5CCN(Cc6cn(CCOCCOCCOCCC(=O)NCCCCn7nc(-c8ccc9oc(N)nc9c8)c8c(N)ncnc87)nn6)CC5)nc4)c3)[C@H](OC)C2)CC(=O)[C@H](C)/C=C(\C)[C@@H](O)[C@@H](OC)C(=O)[C@H](C)C[C@H](C)/C=C/C=C/C=C/1C [Example 22] | 0.00316 to 0.0316 µM | < 0.001 µM | < 0.00316 µM
CO[C@H]1C[C@@H]2CC[C@@H](C)[C@@](O)(O2)C(=O)C(=O)N2CCCC[C@H]2C(=O)O[C@H]([C@H](C)C[C@@H]2CC[C@H](n3nncc3-c3cccc(-c4cnc(N5CCN(C(=O)CCc6cn(CCOCCOCCOCCC(=O)NCCCCn7nc(-c8ccc9oc(N)nc9c8)c8c(N)ncnc87)nn6)CC5)nc4)c3)[C@H](OC)C2)CC(=O)[C@H](C)/C=C(\C)[C@@H](O)[C@@H](OC)C(=O)[C@H](C)C[C@H](C)/C=C/C=C/C=C/1C [Example 48] | 0.00316 to 0.0316 µM | < 0.001 µM | < 0.00316 µM

From patent US20230093861A1, “RAPAMYCIN ANALOGS AS MTOR INHIBITORS” (Revolution Medicines, Inc., priority 2017, published 2023)
